In patent US9921163B2, “Method and device for detecting analytes” (IMEC VZW, priority 2013, dated 2018):

Assay: SERS monitoring of boronic acid derivative binding to diol-modified SERS substrate (flow cell)
From the text: During the experiments, one type of gold nanostructured SERS substrates were applied. Hereto, a bare SiO2 substrate was cleaned prior to the deposition of polystyrene beads with a diameter of 100 nm (obtained from Thermo Fisher Scientific). Due to electrostatic forces, the nanoparticles form a closed-packed layer on the SiO2 substrate. Then, the substrate was carefully rinsed with H2O. Afterwards, a thin layer of Au (˜50 nm) was deposited onto the polystyrene-coated SiO2 substrate using sputter deposition. The as such obtained SERS substrates were cleaned with an aceton-H2O mixture and dried with a stream of N2. Additionally, the samples were cleaned using UV-O3 treatment for 15 min prior to the experiments.
The SERS substrates were immerged into a solution containing 1 mM thiolated glucose for 3 days at room temperature in the dark (i.e. 1-Thio-β-D-glucose sodium salt dihydrate obtained from Toronto Research Chemicals). […]
The SERS substrates functionalized with the thiolated glucose molecules were mounted into a home-made flow cell connected to a peristaltic pump system. […] The corresponding Raman signal was monitored using a Raman setup of LabRAM. […] FIG. 5 represents the SERS intensity monitored at 1075±1 cm^−1 using a time interval of 25 s. […] The response was also measured in real time as represented in FIG. 8. […]

## OB(O)c1ccccc1 [PBA, Phenyl boronic acid]
1 mM PBA in carbonate buffer, 785 nm, 0.5 mW, 25 s interval
  SERS intensity at 1075±1 cm^−1 (PBA binding to immobilized thiolated glucose): an increase of the signal is obtained over time
Human serum albumin 2000 mg/dl in carbonate mixed 1/1 with 1 mM PBA
  SERS response of PBA interacting with immobilized thiolated glucose in presence of human serum albumin: a clear SERS response
